Where two headings read alike, the source gives them in different places.
How the values were obtained:
mTOR = target: T1, mTOR (Homo sapiens, UniProt P42345); assay: mTOR kinase inhibition assay (radiometric or LanthaScreen TR-FRET); type: biochemical; conditions: read-out: mTORC IC50
T1 construct: purchased Invitrogen

PC3 = PC3 proliferation; type: cell-based; conditions: Homo sapiens, PC-3
PI3K δ = target: T2, PI3K δ (Homo sapiens, UniProt O00329); assay: PI 3-Kinase (human) HTRF assay, PI3K δ; type: biochemical; conditions: read-out: PI3K δ IC50
T2 construct: purchased Upstate / Millipore Corporation

PI3K β (p110β/p85α) = target: T3, PI3K β (p110β/p85α) (Homo sapiens, UniProt P42338); assay: PI 3-Kinase (human) HTRF assay, PI3K β; type: biochemical; conditions: read-out: PI3K β IC50
T3 construct: purchased Upstate / Millipore Corporation
T3 sequence (P42338 whole entry): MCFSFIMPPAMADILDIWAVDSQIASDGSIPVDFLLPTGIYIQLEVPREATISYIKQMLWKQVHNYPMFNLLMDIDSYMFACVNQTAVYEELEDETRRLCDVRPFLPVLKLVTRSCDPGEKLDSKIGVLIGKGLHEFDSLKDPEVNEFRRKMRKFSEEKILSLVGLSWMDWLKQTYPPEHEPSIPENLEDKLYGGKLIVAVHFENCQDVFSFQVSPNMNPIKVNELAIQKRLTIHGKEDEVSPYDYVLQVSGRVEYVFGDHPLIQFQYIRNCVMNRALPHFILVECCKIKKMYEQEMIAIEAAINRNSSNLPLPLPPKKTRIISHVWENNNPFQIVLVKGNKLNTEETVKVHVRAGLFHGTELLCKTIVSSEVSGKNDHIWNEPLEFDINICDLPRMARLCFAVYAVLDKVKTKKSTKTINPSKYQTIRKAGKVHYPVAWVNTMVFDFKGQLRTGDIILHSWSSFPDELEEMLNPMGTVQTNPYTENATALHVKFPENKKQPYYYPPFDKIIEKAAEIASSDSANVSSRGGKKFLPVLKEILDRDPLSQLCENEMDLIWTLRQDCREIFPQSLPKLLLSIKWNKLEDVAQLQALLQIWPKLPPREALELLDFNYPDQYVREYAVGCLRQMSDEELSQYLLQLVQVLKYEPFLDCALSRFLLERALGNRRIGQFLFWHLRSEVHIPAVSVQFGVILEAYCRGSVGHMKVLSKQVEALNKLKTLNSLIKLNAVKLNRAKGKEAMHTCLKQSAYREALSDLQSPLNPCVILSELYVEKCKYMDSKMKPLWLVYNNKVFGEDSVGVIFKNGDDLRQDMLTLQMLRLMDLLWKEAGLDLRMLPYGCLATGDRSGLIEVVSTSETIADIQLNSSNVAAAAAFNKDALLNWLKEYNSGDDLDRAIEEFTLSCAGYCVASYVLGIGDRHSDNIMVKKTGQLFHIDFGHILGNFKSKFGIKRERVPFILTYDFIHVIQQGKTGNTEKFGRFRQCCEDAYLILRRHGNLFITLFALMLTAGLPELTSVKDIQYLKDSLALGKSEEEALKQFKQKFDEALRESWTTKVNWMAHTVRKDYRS
T3 sequence (P27986 whole entry partner): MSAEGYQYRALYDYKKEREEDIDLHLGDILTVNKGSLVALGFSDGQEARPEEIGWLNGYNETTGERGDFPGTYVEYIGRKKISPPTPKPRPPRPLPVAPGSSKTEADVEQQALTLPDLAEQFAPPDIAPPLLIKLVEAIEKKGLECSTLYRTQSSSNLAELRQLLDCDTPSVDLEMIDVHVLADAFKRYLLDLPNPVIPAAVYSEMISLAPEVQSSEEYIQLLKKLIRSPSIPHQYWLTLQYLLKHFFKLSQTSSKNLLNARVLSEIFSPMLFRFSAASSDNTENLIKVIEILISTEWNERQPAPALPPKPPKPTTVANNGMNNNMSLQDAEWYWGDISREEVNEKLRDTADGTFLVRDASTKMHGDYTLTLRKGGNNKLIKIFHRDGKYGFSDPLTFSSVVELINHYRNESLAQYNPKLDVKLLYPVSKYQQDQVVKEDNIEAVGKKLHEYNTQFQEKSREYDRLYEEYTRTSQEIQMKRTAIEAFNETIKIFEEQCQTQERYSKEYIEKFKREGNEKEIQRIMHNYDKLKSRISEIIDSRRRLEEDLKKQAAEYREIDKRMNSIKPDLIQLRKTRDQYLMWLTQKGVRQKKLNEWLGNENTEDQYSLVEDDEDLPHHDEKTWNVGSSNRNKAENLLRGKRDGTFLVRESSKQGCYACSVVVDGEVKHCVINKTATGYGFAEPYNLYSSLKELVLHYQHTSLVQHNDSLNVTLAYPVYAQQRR
Procedure: Briefly, the assay is a time resolved FRET assay that indirectly measures PIP3 product formed by the activity of a PI3-K. The kinase reaction is performed in a microtiter plate (e.g., a 384 well microtiter plate). The total reaction volume is approximately 20 ul per well. In the first step, each well receives 2 ul of test compound in 20% dimethylsulphoxide resulting in a 2% DMSO final concentration. […] The plate is sealed and incubated for 15 minutes at room temperature. […] The plate is sealed and incubated for 1 hour at room temperature. The reaction is stopped by adding 5 ul of Stop Solution per well and then 5 ul of Detection Mix is added per well. The plate is sealed, incubated for 1 hour at room temperature, and then read on an appropriate plate reader. Data is analyzed and IC50s are generated using GraphPad Prism 5.

PI3K γ (p110γ) = target: T4, PI3K γ (p110γ) (Homo sapiens, UniProt P48736); assay: PI 3-Kinase (human) HTRF assay, PI3K γ; type: biochemical; conditions: read-out: PI3K γ IC50
T4 construct: purchased Upstate / Millipore Corporation
T4 sequence (P48736 whole entry): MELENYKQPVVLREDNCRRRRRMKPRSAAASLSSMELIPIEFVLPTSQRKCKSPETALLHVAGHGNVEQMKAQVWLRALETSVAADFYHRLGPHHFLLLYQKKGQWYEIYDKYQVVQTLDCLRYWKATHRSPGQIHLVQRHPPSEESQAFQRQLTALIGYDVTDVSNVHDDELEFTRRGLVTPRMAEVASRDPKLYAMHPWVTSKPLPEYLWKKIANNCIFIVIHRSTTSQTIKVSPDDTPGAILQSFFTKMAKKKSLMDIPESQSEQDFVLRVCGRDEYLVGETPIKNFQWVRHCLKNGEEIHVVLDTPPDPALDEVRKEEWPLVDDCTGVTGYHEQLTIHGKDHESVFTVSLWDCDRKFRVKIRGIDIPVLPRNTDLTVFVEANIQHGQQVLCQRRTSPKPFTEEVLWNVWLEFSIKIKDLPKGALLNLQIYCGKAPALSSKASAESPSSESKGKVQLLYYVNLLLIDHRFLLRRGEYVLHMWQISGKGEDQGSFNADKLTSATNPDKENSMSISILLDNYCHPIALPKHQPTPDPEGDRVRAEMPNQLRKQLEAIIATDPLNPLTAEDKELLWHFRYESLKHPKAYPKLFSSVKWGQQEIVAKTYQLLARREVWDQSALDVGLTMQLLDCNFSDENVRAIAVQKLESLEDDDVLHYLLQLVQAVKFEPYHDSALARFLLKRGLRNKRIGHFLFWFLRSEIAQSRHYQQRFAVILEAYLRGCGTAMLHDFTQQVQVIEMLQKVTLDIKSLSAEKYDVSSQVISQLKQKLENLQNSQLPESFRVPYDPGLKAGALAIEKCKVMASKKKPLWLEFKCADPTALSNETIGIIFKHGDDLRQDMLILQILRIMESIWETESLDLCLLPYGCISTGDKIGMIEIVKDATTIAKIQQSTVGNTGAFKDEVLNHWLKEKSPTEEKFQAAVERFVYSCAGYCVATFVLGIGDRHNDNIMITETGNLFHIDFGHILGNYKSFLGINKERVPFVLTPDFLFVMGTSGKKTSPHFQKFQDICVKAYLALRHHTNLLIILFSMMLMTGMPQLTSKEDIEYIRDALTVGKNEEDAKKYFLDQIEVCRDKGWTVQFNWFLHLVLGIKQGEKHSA

PI3K α (p110α/p85α) = target: T5, PI3K α (p110α/p85α) (Homo sapiens, UniProt P42336); assay: PI 3-Kinase (human) HTRF assay, PI3K α; type: biochemical; conditions: read-out: PI3K α IC50
T5 construct: purchased Upstate / Millipore Corporation

T47D [1] = assay: T47D proliferation; type: cell-based; conditions: Homo sapiens; T47D cell line
T47D [2] = assay: T47D proliferation; type: cell-based; conditions: Homo sapiens; T47D cell line; remark: listed apart in the source
MDA-MB-361 = MDA-MB-361 proliferation; type: cell-based
[3] = tested on: anti-TNP antibody production; assay: TNP-Ficoll T-cell independent B-cell activation assay; type: in vivo, mice; conditions: 70 mg/kg GDC0941 for 7 days, FIG. 8
Procedure: To test the effects of the compounds of the present invention in suppressing T cell independent antibody production, the TNP-Ficoll B-cell activation assay is used as described herein. Compounds of the present invention are dissolved in an appropriate vehicle (e.g. 5% 1-methyl-2-pyrrolidinone, 85% polyethylene glycol 400, 10% Solutor). Compounds are administered orally approximately 1 hr before TNP-Ficoll treatment to 4-10 week old mice. To study the effects of the compounds on B-cell activation, one set of mice are grouped according to the following table:
Four animals in group 1, and eight animals in groups 2 to 7 are euthanized in CO2 2 hours after the last compound administration on day 7. […]
Serum samples are analyzed for anti-TNP antibody titers by ELISA as described herein. […] HRP substrate (200 μl ABTS solution+30% H2O2+10 ml citrate buffer) is added to each well at 100 μl/well, incubated 2-20 minutes in the dark and the amount of anti-TNP IgG3 is determined spectrophotometrically at 405 nm. Similarly, anti-TNP IgM and total anti-TNP Ab are determined using anti-mouse IgM-HRP and anti-mouse Ig-HRP respectively.
Antibody production was measured using ELISA and plotted as a percentage of control group that were treated with vehicle.

MZB cells = MZB cells in mouse spleen (FIG. 9, right panel); type: in vivo; conditions: 70 mg/kg Pan-PI3K inhibitor compared to 60 mg/kg Compound A
marginal zone B cells = assay: Marginal zone B cells in mouse spleen (FACS); type: in vivo; conditions: 70 mg/kg, spleens harvested 2 hrs after the last dose, FIG. 9
Procedure: The effect of the compounds on the localization/viability of marginal zone B cells in the spleen is also evaluated at the conclusion of treatment.
Spleens were harvested 2 hrs after the last dose, processed and stained with appropriate antibodies (marginal zone B cell: B220+;CD23−;CD21hi) and analyzed for staining on GUAVA EasyCyte FACS machine using Guava Cytosoft 5.2 software.

[4] = tested on: preclinical breast cancer model; assay: Preclinical breast cancer model, tumor weight / volume; type: in vivo; conditions: 70 mg/kg Pan-PI3K inhibitor; 60 mg/kg compound A; FIG. 9 left panel
B cell function = assay: TNP-Ficoll immunization, antibody production (FIG. 8); type: in vivo; conditions: mice immunized with TNP-Ficoll, 7 days, 70 mg/kg GDC0941, 30, 60 or 120 mg/kg Compound A
Procedure: Mice were immunized with TNP-Ficoll and treated with 1) vehicle; 2) 70 mg/kg GDC0941; 3) 30 mg/kg Compound A; 4) 60 mg/kg Compound A; or 5) 120 mg/kg Compound A for 7 days. Antibody production was measured as a percentage of control group that were treated with vehicle.

[5] = tested on: MDA-MB-361 (PI3Kα/HER2 carcinoma) tumors; assay: In vivo efficacy in xenogenic mouse model of breast cancer; design: species or system Nude mice; conditions: 70 mg/kg, FIG. 9 left panel
Procedure: Blood glucose was monitored periodically following administration of treatment.
Treatment of tumors (MDA-MB-361) with compounds was discontinued on Day 30. Tumors were measured every 2-5 days.

[6] = PC3 cell line (compounds before 438), read-out: PC3 proliferation (nM)*
[7] = Table 2 (mTor inhibitor compounds), PC3, read-out: PC3 proliferation

T1 sequence (P42345 1360-2549 limits assumed): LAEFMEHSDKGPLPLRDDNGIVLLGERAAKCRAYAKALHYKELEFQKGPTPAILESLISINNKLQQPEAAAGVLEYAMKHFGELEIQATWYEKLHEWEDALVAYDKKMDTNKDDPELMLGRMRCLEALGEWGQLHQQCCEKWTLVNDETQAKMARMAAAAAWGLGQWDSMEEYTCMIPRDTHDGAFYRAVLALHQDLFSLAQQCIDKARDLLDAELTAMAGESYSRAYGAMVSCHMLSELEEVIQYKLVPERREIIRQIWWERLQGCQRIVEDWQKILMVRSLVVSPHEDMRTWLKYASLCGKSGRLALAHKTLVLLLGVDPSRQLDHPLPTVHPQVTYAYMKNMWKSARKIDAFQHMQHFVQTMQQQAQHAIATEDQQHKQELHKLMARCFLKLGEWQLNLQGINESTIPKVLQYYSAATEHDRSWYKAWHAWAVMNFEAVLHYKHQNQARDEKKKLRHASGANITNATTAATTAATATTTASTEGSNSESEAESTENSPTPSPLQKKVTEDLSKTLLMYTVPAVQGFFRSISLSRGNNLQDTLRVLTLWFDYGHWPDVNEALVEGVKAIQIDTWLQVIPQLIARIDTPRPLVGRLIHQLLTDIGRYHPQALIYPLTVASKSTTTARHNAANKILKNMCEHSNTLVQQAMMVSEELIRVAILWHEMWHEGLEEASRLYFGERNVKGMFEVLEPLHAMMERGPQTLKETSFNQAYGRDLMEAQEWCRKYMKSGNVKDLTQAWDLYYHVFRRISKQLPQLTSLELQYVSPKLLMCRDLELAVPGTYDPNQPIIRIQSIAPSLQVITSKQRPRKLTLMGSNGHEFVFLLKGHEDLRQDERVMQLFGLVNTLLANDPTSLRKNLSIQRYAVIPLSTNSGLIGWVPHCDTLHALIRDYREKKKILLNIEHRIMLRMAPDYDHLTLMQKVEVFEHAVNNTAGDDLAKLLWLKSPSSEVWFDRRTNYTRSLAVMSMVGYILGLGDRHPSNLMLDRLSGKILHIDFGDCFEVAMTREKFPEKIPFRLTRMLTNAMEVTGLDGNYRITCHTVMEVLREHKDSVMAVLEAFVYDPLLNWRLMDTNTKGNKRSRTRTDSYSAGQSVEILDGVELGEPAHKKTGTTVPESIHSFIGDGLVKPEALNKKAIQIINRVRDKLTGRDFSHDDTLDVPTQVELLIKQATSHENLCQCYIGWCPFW

Row | SMILES | IC50 (mTOR) | IC50 (PC3; [6]) | IC50 (PI3K δ) | IC50 (PI3K β (p110β/p85α)) | IC50 (PI3K γ (p110γ)) | IC50 (PI3K α (p110α/p85α)) | other results
1 | CC(=O)Nc1nc2ccc(-c3ccc4nccc(-c5ccncc5)c4c3)cc2s1 [Compound 2] | > 10000 nM | < 10000 nM | > 10000 nM | > 10000 nM | < 1000 nM | < 1000 nM | –
2 | Nc1nc2ccc(-c3ccc4nccc(-c5ccncc5)c4c3)cc2o1 [Compound 4] | < 1000 nM | < 100 nM | < 100 nM | < 100 nM | – | < 100 nM | –
3 | Nc1nc2cc(-c3ccc4ncc(-c5ccncc5)n4c3)ccc2o1 [Compound 6] | < 10000 nM | < 10000 nM | < 1000 nM | < 10000 nM | – | < 100 nM | IC50 (T47D [1]): < 1000 nM
4 | Cn1c(=O)n(-c2ccc(C(C)(C)C#N)cc2)c2c3cc(-c4ccc5oc(N)nc5c4)ccc3ncc21 [Compound 7] | < 100 nM | < 100 nM | < 100 nM | < 100 nM | < 100 nM | < 100 nM | –
5 | Nc1nc2cc(-c3ccc4ncc(-c5ccncc5)n4n3)ccc2o1 [Compound 10] | < 1000 nM | < 1000 nM | – | < 1000 nM | < 100 nM | < 100 nM | IC50 (T47D [1]): < 1000 nM
6 | Nc1nc2cc(-c3ccc4ncn(-c5ccccc5)c4c3)ccc2o1 [Compound 11] | > 10000 nM | > 10000 nM | – | < 10000 nM | – | < 100 nM | –
7 | CC(C)n1nc(-c2cc3ccc(C#N)cc3[nH]2)c2c(N)ncnc21 [Compound 24] | – | – | – | – | – | – | IC50 (PC3; [7]): > 500 nM
8 | CC(C)n1nc(-c2cc3ccc(C(N)=O)cc3[nH]2)c2c(N)ncnc21 [Compound 25] | – | – | – | – | – | – | IC50 (PC3; [7]): > 500 nM
9 | Nc1nc2cc(-c3ccc4ncc(N5CCOCC5)nc4c3)ccc2o1 [Compound 64] | < 10000 nM | – | > 10000 nM | < 1000 nM | < 100 nM | < 100 nM | IC50 (T47D [1]): < 10000 nM
10 | CN1CCN(c2cnc3ccc(-c4ccc5oc(N)nc5c4)cc3n2)CC1 [Compound 65] | > 10000 nM | – | < 10000 nM | < 100 nM | < 1000 nM | < 100 nM | IC50 (T47D [1]): < 10000 nM
11 | Nc1nc2cc(-c3ccc4nnc(C(=O)N5CCOCC5)n4c3)ccc2o1 [Compound 282] | – | – | > 10000 nM | > 10000 nM | > 10000 nM | > 10000 nM | IC50 (T47D [2]): > 10000 nM
12 | COc1ncc(-c2ccc3ncc(C(=O)N4CCOCC4)n3c2)cc1NS(=O)(=O)c1cccnc1 [Compound 462] | – | – | < 100 nM | < 100 nM | < 100 nM | < 100 nM | IC50 (MDA-MB-361; Homo sapiens, MDA-MB-361, Starting with compound 438, proliferation data was obtained using an MDA-MB-361 cell line, read-out: PC3 proliferation (nM)*): < 1000 nM
13 | Nc1nc2cc(-c3ccc4ncc(N5CCNC(=O)C5)cc4n3)ccc2o1 [Compound 580] | – | – | – | – | – | – | IC50 (PI3K δ; Table 4 (PI3K α inhibitors)): < 10000 nM; IC50 (MDA-MB-361; Homo sapiens, MDA-MB-361, Table 4 (PI3K α inhibitors), MDA-MB-361, read-out: MDA-MB-361 proliferation (nM)*): < 1000 nM; IC50 (PI3K β (p110β/p85α); Table 4 (PI3K α inhibitors)): < 1000 nM; IC50 (PI3K γ (p110γ); Table 4 (PI3K α inhibitors)): < 100 nM; IC50 (PI3K α (p110α/p85α); Table 4 (PI3K α inhibitors)): < 100 nM
14 | C[C@H]1CN(C2CN(c3cnc4ccc(-c5ccc6oc(N)nc6c5)nc4n3)C2)CCN1C [Compound 606] | – | – | – | – | – | – | IC50 (mTOR; Table 4 (PI3K α inhibitors)): > 10000 nM; IC50 (PI3K δ; Table 4 (PI3K α inhibitors)): < 1000 nM; IC50 (MDA-MB-361; Table 4 (PI3K α inhibitors), MDA-MB-361, read-out: MDA-MB-361 proliferation (nM)*): < 1000 nM; IC50 (PI3K β (p110β/p85α); Table 4 (PI3K α inhibitors)): < 10000 nM; IC50 (PI3K γ (p110γ); Table 4 (PI3K α inhibitors)): < 10000 nM; IC50 (PI3K α (p110α/p85α); Table 4 (PI3K α inhibitors)): < 100 nM
15 | CS(=O)(=O)N1CCN(Cc2cc3nc(-c4cccc5[nH]ncc45)nc(N4CCOCC4)c3s2)CC1 [Pan-PI3K inhibitor, reference compound] | – | – | – | – | – | – | B cell function in vivo (antibody production, ELISA) [3]: blocks B cell function in vivo; presence of MZB cells in mouse spleen (MZB cells): reduced presence of MZB cells; presence of MZB cells in mouse spleen (marginal zone B cells): reduced presence of MZB cells; tumor weight of a breast cancer model [4]: reduction in tumor weight; B cell function in vivo (antibody production as percentage of vehicle control) (B cell function): blocks B cell function in vivo; tumor weight [5]: reduction in tumor weight

— US20150087627A1, “COMBINATION OF KINASE INHIBITORS AND USES THEREOF” (Intellikine LLC, priority 2011, published 2015)
